Measured values from US20080025962A1, “Remedy for Alzheimer's Disease” (AnGesMG,Inc., priority 2005, published 2008).
Entries after “also recorded” stand apart in the source; their conditions may differ.

What was measured:
[1] = test system: Human brain microvascular endothelial cells (arterial); test: Cell growth (cell count) of artery endothelial cells after Aβ stimulation; assay type: cell-based; settings: for Cell count (relative to control as 100): Artery endothelial cells
Experimental: (§1) Human brain microvascular endothelial cells (HBMEC), human umbilical artery endothelial cells (HUAEC), human umbilical vein endothelial cells (HUVEC) and human aortic smooth muscle cells (HSMC) were obtained from Applied Cell Biology Research Institute. The cells were cultured using a modified MCDB131 medium supplemented with 2% or 10% FBS; those subcultured over 3 to 6 passages were used in the experiments described below.
(§2) Human brain microvascular endothelial cells (arterial and venous) cultured in a 12-well plate by the above-described method were stimulated with Aβ1-40 (0.05 μM, 0.5 μM and 5 μM), Aβ1-42 (0.5 μM), Aβ40-1 (0.5 μM), and control (no Aβ derivative added) for 72 hours. Aβ40-1 has the sequence reverse to that of Aβ1-40. This was used as the control peptide. Next, the number of cells was counted manually using a hemocytometer.

[2] = test system: endothelial cells; test: Endothelial cell migration, Boyden chamber assay; assay type: cell-based, human; settings: VEGF 10 ng/ml; for Effect on endothelial migration: Boyden chamber
Experimental: as §1
Next, endothelial cell migration was examined using Boyden chamber assay. Briefly, an EBM-2 medium comprising VEGF (10 ng/ml), Aβ1-40 (0.5 μM and 5 μM)+VEGF (10 ng/ml), Aβ40-1 (0.5 μM)+VEGF (10 ng/ml), 10% FBS or control (no Aβ derivative added) was placed in the lower section of a chamber. 5×10^4 endothelial cells (in 50 μL of EBM-2 supplemented with 0.5% bovine serum albumin) were seeded into the upper section of the chamber. Cell migration was measured by counting the cells in four highly magnified fields of vision (×40). Three experiments were performed for each group. (mean ±standard deviation: P<0.05)
The unit of measurement is in cell count/field of vision.

[3] = test system: Akt; test: Western blot assay, Akt phosphorylation; assay type: cell-based, human; settings: VEGF 10 ng/mL, Aβ1-40 0.5 μM, up to 40 minutes
Experimental: (§3) After the EC reached an 80% confluence, the medium was exchanged with an FBS-free fresh medium, and the EC was allowed to stand for 4 hours. Next, the cells were stimulated with human VEGF (10 ng/mL) and Aβ1-40 (0.5 μM) for up to 40 minutes. Total cell protein extract from human endothelial cells was separated on 12.5% SDS-polyacrylamide gel, and transferred to a nitrocellulose membrane. The membrane was subjected to Western blotting using antibodies against human Akt, phosphorylated Akt and phosphorylated ERK (Cell Signaling).

[4] = test system: Human brain microvascular endothelial cells (venous); test: Cell growth (cell count) of venous endothelial cells after Aβ stimulation; assay type: cell-based; settings: 72 hours
Experimental: as §1, §2

[5] = test system: Human umbilical artery endothelial cells; test: EC vessel formation on Matrigel, artery endothelial cells; assay type: cell-based; settings: for Full-length of cells on Matrigel, Mean value: Artery endothelial cells, 72 hours stimulation, 18 hours on Matrigel
Experimental: as §1
(§4) Human umbilical artery endothelial cells and human umbilical vein endothelial cells were stimulated with Aβ1-40 (0.5 μM and 5 μM), Aβ40-1 (0.5 μM), and control (no Aβ derivative added) for 72 hours; after reaching an 80% confluence, endothelial cells were then washed with PBS, trypsinated, and cultured on a 6-well culture plate coated with Matrigel basal membrane matrix (Becton Dickinson Labware) for 18 hours. The cells on the Matrigel were photographed, and the full-length was measured using an NIH image analyzer.
(§5) The unit of measurement is in pixel.

[6] = test system: human umbilical vein endothelial cells; test: EC vessel formation on Matrigel, vein endothelial cells; assay type: cell-based; settings: 72 hours stimulation, 18 hours on Matrigel
Experimental: as §1, §4, §5

[7] = test system: c57/BL6J mice; test: Matrigel plug transplant assay; assay type: in vivo, mouse
Experimental: Age-matched male c57/BL6J mice at 8 weeks of age were given 500 μL of Matrigel comprising 50 ng/mL VEGF and Aβ1-40 (5 μM), and 37 units of heparin by subcutaneous injection. Seven days later, the Matrigel plug was carefully recovered from each mouse, washed with phosphate-buffered saline (PBS) three times, and stored under freezing at −20° C. A section ([…]) of the frozen plug was fixed in ice-cooled acetone, and then stained with rat anti-mouse CD31 primary antibody (Pharmingen), FITC-conjugated anti-α smooth muscle actin antibody (Sigma) and Alexa-conjugated goat anti-rat secondary antibody (Molecular Probe).
Blood vessel density in the stained section was evaluated by fluorescence intensity using the NIH image software. The hemoglobin content in each plug was measured as an index of adult vascular regeneration.

[8] = test system: Human SMC; test: ELISA assay of VEGF level in SMC culture; assay type: cell-based; settings: 48 hours after stimulation
Experimental: as §1
Human SMC was cultured in a 12-well culture plate of an MCDB medium comprising 10% FBS. 48 hours after Aβ1-40 stimulation, the VEGF level in each well was tested by enzyme immunoassay (R&D System).

[9] = test system: ERK; test: Western blot assay, ERK phosphorylation; assay type: cell-based, human; settings: VEGF 10 ng/mL, Aβ1-40 0.5 μM, up to 40 minutes
Experimental: as §3

[10] = test system: low-density monocytes from the spleen of a C57BL/6J mouse; test: Adult vascular stem cell differentiation assay; assay type: cell-based; settings: Dil-acetylated LDL and BS-1 double staining; 4 days of cultivation
Experimental: Briefly, low-density monocytes were isolated from the spleen of a C57BL/6J mouse by a density centrifugation method using Histopaque-1083 (Sigma, St. Louis, Mo.). The cells were seeded onto a 4-well glass slide (Nunc International) coated with rat vitronectin (Sigma), and cultured in a medium comprising 2% heat inactivated defined FBS. The medium was supplemented with the endothelial growth supplementation kit, EGM-2MV single aliquot (Clonetics).
After 4 days of cultivation, the cells were incubated with the addition of acetylated LDL (Biomedical Technologies, Stoughton, Mass.), and stained with FITC-conjugated Griffonia simplicifolia lectin I (BS1-lectin) (Vector Laboratories). In 15 fields of vision at 40× magnification, the number of cells double stained with acLDL-Dil and BS1 was counted for each sample as endothelial precursors.

[11] = Matrigel plug with 50 ng/mL VEGF and Aβ1-40 (5 μM), subcutaneous, seven days

“Aβ1-42: β-amyloid species longer than Aβ1-40 by two residues on the C-terminal side” was tested, and the “Toxic effect on endothelial cells (necrotized cells observed)” value ([1]; 0.5 μM, 72 hours, FIG. 2) was “toxic effect on endothelial cells”.
“vascular endothelial growth factor [VEGF]” was tested, and the “Effect on endothelial migration” value [2] was “endothelial migration was caused by vasculogenesis by VEGF”, the “Cell migration, Mean value” ([2]; substance in lower section of chamber, Aβ1-40 0.5 μM and 5 μM, Aβ40-1 0.5 μM) was 100.018 cell count/field of vision and the “Intracellular Akt phosphorylation” value [3] was “stimulated”.
β-amyloid 1-40 [Aβ1-40] was tested, and the “Cell count (relative to control as 100)” value ([1]; 0.05 μm, 72 hours) was 78 ± 9.481, the “Cell count (relative to control as 100)” value ([1]; 0.5 μm, 72 hours) was 75 ± 8.011 and the “Cell count (relative to control as 100)” value ([1]; 5 μm, 72 hours) was 73 ± 11.699. The “Effect on growth of human brain microvascular endothelial cells” value ([1]; text statement for arterial and venous cells, more conspicuous in arteries) was “suppressed the growth of human brain microvascular endothelial cells”, the “Cell count (relative to control as 100)” value ([4]; 0.05 μm) was 80 ± 18.987 and the “Cell count (relative to control as 100)” value ([4]; 0.5 μm) was 73 ± 11.392. The “Cell count (relative to control as 100)” value ([4]; 5 μm) was 70 ± 5.968, the “Full-length of cells on Matrigel, Mean value” (“Full-length of cells” below) ([5]; 0.5 μm) was 8719.333 pixel and the “Full-length of cells” value ([5]; 5 μm) was 7951.167 pixel. The “Effect on EC vessel formation on Matrigel” value ([5]; text statement for Tables 2 and 3) was “suppressed EC vessel formation on Matrigel”, the “Full-length of cells” value ([6]; 0.5 μm) was 10599.000 pixel and the “Full-length of cells” value ([6]; 5 μm) was 9884.333 pixel. For the same substance, the “Effect on endothelial migration” value [2] was “the effect was inhibited”, the “Blood vessel density, Mean value” [7, 11] was 825.800 pixel and the “Hemoglobin content, Mean value” [7, 11] was 0.084 OD 450/tissue mg. The “Effect on adult vascular regeneration in vivo” value ([7]; Matrigel plug, mice) was “suppressive effect on adult vascular regeneration in vivo”, the “Effect on VEGF secretion from VSMC” value [8] was “no direct effect on VEGF secretion from VSMC” and the “VEGF level, Mean value” ([8]; DSF, enzyme immunoassay) was 0.080. For the same substance, the “Intracellular Akt phosphorylation” value [3] was “inhibited”, the “ERK phosphorylation caused by VEGF” value [9] was “no effect on the ERK phosphorylation caused by VEGF” and the “Effect on growth and differentiation of vascular stem/precursor cells” value [10] was “inhibitory effect on the differentiation of vascular stem cells; also recorded: suppressed the growth and differentiation of the cultured vascular precursor cells”.
